Test system: choroidal neovascularization (CNV)
Assay: Laser-induced choroidal neovascularization (CNV) in mice, rupture of Bruch's membrane
Format: in vivo, C57BL/J mice
Conditions: single 5 μl intravitreal injection immediately after laser, day 14 post-laser
Source text: Choroidal neovascularization (CNV) was induced in C57BL/J mice by rupturing Bruch's membrane via focal laser photocoagulation (FIG. 3). (Tobe T, et al., AM. J. PATHOL., 153:1641-1646 (1998)). Three to four retinal burns were placed in randomly assigned eye using the Alcon 532 nm EyeLite laser (75 μm spot size, 0.1 seconds duration, 120 mW) with a slit lamp delivery system. The laser bums were used to generate a rupture in Bruch's membrane, which was indicated ophthalmoscopically by the formation of a bubble under the retina. Only mice with laser burns that produced three bubbles per eye were included in the study. Burns were typically placed at the 3, 6, 9 or 12 o'clock positions in the posterior pole of the retina, avoiding the branch retinal arteries and veins.
Each mouse was randomly assigned into one of the following treatment groups after laser: noninjected controls, sham-injected controls, vehicle-injected mice, or one of three anecortave acetate-injected groups. Control mice received laser photocoagulation in both eyes, where one eye received a sham injection, i.e. a pars plana needle puncture. For intravitreal-injected animals, one laser-treated eye received a 5 μl intravitreal injection of 0%, 0.1%, 1%, or 10% anecortave acetate. The intravitreal injection was performed immediately after laser photocoagulation.
Fourteen days post-laser, all mice were euthanized and systemically perfused with fluorescein-labeled dextran. Eyes were then harvested and prepared as choroidal flat mounts, and the 2-dimensional CNV area was quantified with computerized digital analysis. (Mori K., et al., AM. J. PATHOL. 159:313-320 (2001)). The median CNV area/burn per mouse per treatment was used for statistical analysis; P≦0.05 was considered significant.

For `CC(=O)OCC(=O)[C@@]1(O)CC[C@H]2[C@@H]3CCC4=CC(=O)CC[C@]4(C)C3=CC[C@@]21C` [anecortave acetate, 4,9(11)-pregnadien-17α,21-diol-3,20-dione-21-acetate], the “CNV versus vehicle-injected controls” value (0.1% anecortave acetate) was “No difference”, the “CNV versus vehicle-injected controls” value (1% anecortave acetate) was “No difference” and the “inhibition of CNV (median CNV area/burn) as compared to vehicle-injected eyes” value (10% anecortave acetate, Mann-Whitney P<0.001) was 57.8%.

Source: US20050239760A1, “Angiostatic agents and methods and compositions for controlling ocular hypertension” (Alcon, Inc., priority 2004, published 2005)
